We go through five compounds from US20110117212A1, “THERAPEUTIC COMBINATION COMPRISING AN AURORA KINASE INHIBITOR AND AN ANTINEOPLASTIC AGENT” (priority 2008, published 2011).

In data set [1] the test system is A2780 human ovarian carcinoma. As to the kind of experiment: In vivo antitumor efficacy in combination with cisplatin. The following applies: A2780 s.c. in athymic mice; Compound 1 15 mg/kg ip BID days 13-17; cisplatin 8 mg/kg iv day 17; combination: same doses and days. As for the experimental part:
A2780 human ovarian carcinoma cells were obtained from American Type Culture Collection (Rockville, Md.) and were maintained in vitro as continuous cultures in RPMI medium supplemented with 10% FBS, at 37° C., 5% CO2. For in vivo experiments 8×10^6 A2780 cells were implanted subcutaneously in athymic mice.
(§1) The treatment started when tumors were palpable (day 13). Both compounds were prepared immediately before treatment.
Tumor growth was assessed by caliper. […] Animals were sacrificed on day 37 after tumor implant, day 24 from the start of treatments and tumors were weighted. The effect of the antitumor treatment was evaluated as percentage of tumor growth inhibition of the treated group respect to control.

Data set [2] concerns DU145 prostate carcinoma. The following applies: DU145 s.c. in athymic mice; delay to reach 1 g tumor; Compound 1 30 mg/kg ip BID days 10-18; docetaxel 7.5 mg/kg iv days 10, 14, 18; combination: docetaxel days 10, 14, 18, Compound 1 days 11, 12, 13, 15, 16, 17, 19, 20, 21. On the procedure:
Balb, Nu\Nu male mice, from Harlan (Italy), were maintained in cages with paper filter cover, food and bedding sterilized and water acidified. 2.5×10^6 DU145 prostate carcinoma cells (from the American Type Culture Collection) were injected subcutaneously in athymic mice.
The treatment started 10 days later tumor cells injection when tumors were palpable. Docetaxel was prepared immediately before treatment, compound 1 of formula (A) was prepared daily, on the basis of known stability of the compound.
Compound 1 was administered by intraperitoneal route in a volume of 10 ml/kg at the doses of 30 mg/kg twice a day (BID) for 9 days (days 10 to 18). Docetaxel was administered by intravenous route in a volume of 10 ml/kg at the dose of 7.5 mg/kg on days 10, 14, 18 from the days of cell injection. When combined, compound 1 was administered in the interval between the docetaxel treatments at days 11, 12, 13, 15, 16, 17, 19, 20 and 21. Tumor growth and body weight were measured every 3 days. Tumor growth was assessed by caliper. The two diameters were recorded and the tumor weight was calculated according the following formula:
length (mm)×width^2/2. The effect of the antitumor treatment was evaluated as the delay in the onset of an exponential growth of the tumor (see for references, Anticancer drugs 7:437-60, 1996). […] Toxicity was evaluated on the basis of body weigh reduction.

The subject of data set [3] is A2780 human ovarian carcinoma. Kind of data set: In vivo antitumor efficacy of the combination with irinotecan. As to conditions: for TGI %: A2780 s.c. in athymic mice, Compound 1 30 mg/kg ip BID days 13-17, irinotecan 60 mg/kg iv day 13, combination: irinotecan 50 mg/kg day 13 + Compound 1 30 mg/kg days 13-17. On the procedure: A2780 human ovarian carcinoma cells were obtained from American Type Culture Collection (Rockville, Md.) and were maintained in vitro as continuous cultures in RPMI medium supplemented with 10% FBS, at 37° C., 5% CO2. For in vivo experiments 8×10^6 A2780 were implanted subcutaneously in athymic mice. This tumor model was selected because it was sensitive to platinum derivatives and also on the basis of use of this drugs in ovarian cancer.
as §1
When combined, compound 1 was administered from day 1 to day 5, irinotecan at day 1. […] Tumor growth was assessed by caliper. […] Animals were sacrificed on day 37 after tumor implant, day 24 from the start of treatments and tumors were weighted. The effect of the antitumor treatment was evaluated as percentage of tumor growth inhibition of the treated group respect to control.

Data set [4] relates to BX-PC3 human pancreatic carcinoma. Kind of data set: In vivo antitumor efficacy in combination with gemcitabine. The following applies: BX-PC3 s.c. in athymic mice; compound 1 15 mg/kg ip BID days 9-17; gemcitabine 80 mg/kg iv days 9, 13, 17; combination: gemcitabine days 9, 13, 17, compound 1 days 10, 11, 12, 14, 15, 16, 18, 19, 20. On the procedure:
Fragments of BX-PC3 human pancreatic carcinoma were implanted subcutaneously in athymic mice. […] The treatment with gemcitabine started at day 9 after tumor implantation, when tumors were palpable. Compounds were prepared immediately before treatments.
When combined, gemcitabine was administered at days 9, 13, 17 and compound 1 was administered for the following 3 days after gemcitabine administration. […] Tumor growth was assessed by caliper. […] The effect of the antitumor treatment was evaluated as percentage of tumor growth inhibition (TGI %). Toxicity was evaluated on the basis of body weight reduction.

For the compound `N.N.[Cl][Pt][Cl]` [Cisplatin, cisplatin], the TGI % in data set [1] is recorded as 21%.

Regarding `CO[C@@H](C(=O)N1Cc2[nH]nc(NC(=O)c3ccc(N4CCN(C)CC4)cc3)c2C1)c1ccccc1` [Compound 1, N-{5-[(2R)-2-methoxy-2-phenylethanoyl]-1,4,5,6-tetrahydropyrrolo[3,4-c]pyrazol-3-yl}-4-(4-methylpiperazin-1-yl)benzamide], the “T-C” value in data set [2] is on record as 5.3 days. The TGI % in data set [1] is reported as 46%; in data set [3] it was 72.3%; in data set [4] it was 53%.

On to `CC(=O)O[C@@]12CO[C@@H]1C[C@H](O)[C@@]1(C)C(=O)[C@H](O)C3=C(C)[C@@H](OC(=O)[C@H](O)[C@@H](NC(=O)OC(C)(C)C)c4ccccc4)C[C@@](O)([C@@H](OC(=O)c4ccccc4)[C@H]21)C3(C)C` [docetaxel], for which the “T-C” value in data set [2] worked out at 3.7 days.

Regarding `Nc1ccn([C@@H]2O[C@H](CO)[C@@H](O)C2(F)F)c(=O)n1` [gemcitabine], the TGI % in data set [4] is 61%.

In the case of `CCc1c2c(nc3ccc(OC(=O)N4CCC(N5CCCCC5)CC4)cc13)-c1cc3c(c(=O)n1C2)COC(=O)[C@]3(O)CC` [irinotecan], the TGI % in data set [3] was 62%. Further, the Toxicity in data set [3] (evaluated on the basis of body weight reduction, A2780 mice, Compound 1 30 mg/kg ip BID, irinotecan iv, alone or combined) is recorded as 0/7.
